Tested on: hRXR α, β, or γ
Test: Transactivation assay (RARE-Luc dual luciferase reporter in HEK-293 cells), activity relative to LG268
Format: cell-based, human
Settings: compound at 300 nM, 24 h; luciferase activity expressed relative to LG268
In short: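 HEK-293 cells co-transfected with hRXR α, β or γ expression vector, RARE-firefly luciferase and renilla luciferase; 24 h later treated with agonist (100 nM, 300 nM, 1 uM) for 24 h. Firefly signal normalized to renilla; activity expressed relative to the RXR agonist LG268.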

Row | SMILES | Activity at 300 nM
1 | Cc1c(N(CC(C)C)c2ccc(C(=O)O)c(N)c2)sc2c1C(C)(C)CCC2(C)C [Compound 79, 2-amino-4-[(2-methylpropyl) (3,4,4,7,7-pentamethyl-4,5,6,7-tetrahydro-1-benzothiophen-2-yl)amino]benzoic acid] | ***** (>0.6)
2 | CCCS(=O)(=O)Nc1cc(N(CC(C)C)c2sc3c(c2C)C(C)(C)CCC3(C)C)ccc1C(=O)O [Compound 80, 4-[(2-methylpropyl) (3,4,4,7,7-pentamethyl-4,5,6,7-tetrahydro-1-benzothiophen-2-yl)amino]-2-[(propylsulfonyl)amino]benzoic acid] | *** (>0.4 and <0.5)
3 | CCCN(c1ccc(C(=O)O)cn1)c1nc2c(s1)C(C)(C)C=CC2(C)C [Compound 81, 6-[propyl(4,4,7,7-tetramethyl-4,7-dihydro-1,3-benzothiazol-2-yl)amino]pyridine-3-carboxylic acid] | ***** (>0.6)
4 | CC(C)CN(c1ccc(C(=O)O)cn1)c1nc2c(s1)C(C)(C)C=CC2(C)C [Compound 82, 6-[(2-methylpropyl) (4,4,7,7-tetramethyl-4,7-dihydro-1,3-benzothiazol-2-yl)amino]pyridine-3-carboxylic acid] | ***** (>0.6)
5 | CC(C)CN(c1ccc(C(=O)O)cc1)c1nc2c(s1)C(C)(C)C=CC2(C)C [Compound 83, 4-[(2-methylpropyl) (4,4,7,7-tetramethyl-4,7-dihydro-1,3-benzothiazol-2-yl)amino]benzoic acid] | * (<0.3)
6 | CC1(C)CCC(C)(C)c2sc(N(C(=O)C3CCC3)c3ccc(C(=O)O)cn3)nc21 [Compound 84, 6-[(cyclobutylcarbonyl) (4,4,7,7-tetramethyl-4,5,6,7-tetrahydro-1,3-benzothiazol-2-yl)amino]pyridine-3-carboxylic acid] | ** (>0.3 and <0.4)
7 | CC(=O)N(c1ccc(C(=O)O)cn1)c1nc2c(s1)C(C)(C)CCC2(C)C [Compound 85, 6-[acetyl(4,4,7,7-tetramethyl-4,5,6,7-tetrahydro-1,3-benzothiazol-2-yl)amino]pyridine-3-carboxylic acid] | ** (>0.3 and <0.4)
8 | CC1(C)CC(O)C(C)(C)c2nc(N(CC3CC3)c3ccc(C(=O)O)cn3)sc21 (stereo not shown) [Compound 86, 6-[(cyclopropylmethyl) (5-hydroxy-4,4,7,7-tetramethyl-4,5,6,7-tetrahydro-1,3-benzothiazol-2-yl)amino]pyridine-3-carboxylic acid] | ***** (>0.6)
9 | COC1CC(C)(C)c2sc(N(CC3CC3)c3ccc(C(=O)O)cn3)nc2C1(C)C (stereo not shown) [Compound 87, 6-[(cyclopropylmethyl) (5-methoxy-4,4,7,7-tetramethyl-4,5,6,7-tetrahydro-1,3-benzothiazol-2-yl)amino]pyridine-3-carboxylic acid] | ***** (>0.6)
10 | CC(C)CN(c1ccc(C(=O)O)cc1)c1nc2c(s1)C(C)(C)CC(C)(O)C2(C)C (stereo not shown) [Compound 88, 4-[(5-hydroxy-4,4,5,7,7-pentamethyl-4,5,6,7-tetrahydro-1,3-benzothiazol-2-yl) (2-methylpropyl)amino]benzoic acid] | ** (>0.3 and <0.4)
11 | CC(C)CN(c1ccc(C(=O)O)cc1)c1nc2c(s1)C(C)(C)C/C(=N/O)C2(C)C [Compound 89, 4-{[(5Z)-5-(hydroxyimino)-4,4,7,7-tetramethyl-4,5,6,7-tetrahydro-1,3-benzothiazol-2-yl](2-methylpropyl)amino}benzoic acid] | ** (>0.3 and <0.4)
12 | CC(C)CN(c1ccc(C(=O)O)cc1)c1nc2c(s1)C(C)(C)CC(NCc1ccccc1)C2(C)C (stereo not shown) [Compound 90, 4-{[5-(benzylamino)-4,4,7,7-tetramethyl-4,5,6,7-tetrahydro-1,3-benzothiazol-2-yl](2-methylpropyl)amino}benzoic acid] | ** (>0.3 and <0.4)
13 | Cc1c(N(CC(C)C)c2ccc(C(=O)O)c(O)c2)sc2c1C(C)(C)CCC2(C)C [Compound 91, 2-hydroxy-4-[(2-methylpropyl) (3,4,4,7,7-pentamethyl-4,5,6,7-tetrahydro-1-benzothiophen-2-yl)amino]benzoic acid] | ***** (>0.6)

— patent publication US9862713B2, “Substituted bicyclic heteroaryl compounds as RXR agonists” (CONNEXIOS LIFE SCIENCES PVT. LTD., priority 2014, dated 2018)
